Source: ChEMBL document CHEMBL1201862, “PubChem BioAssay data set” (2004)
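Following 48 hours of exposure in 96-well plates, responses at five concentrations were used to interpolate endpoints linearly. GI50 marks 50% less growth.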 Active and inactive are the calls of the source. Rule as the data show it: active = GI50 up to about 1.1 µM and inactive = higher.

Experiments:
Assay in all cases: DTP human tumour cell line panel, 48 h
[1] = system: OVCAR-5
[2] = system: HCT-116
[3] = system: 786-0
[4] = system: M14
[5] = system: TK-10
[6] = system: SK-MEL-5
[7] = system: SF-539
[8] = system: OVCAR-3
[9] = system: U-251
[10] = system: HT-29
[11] = system: SN12C
[12] = system: KM12
[13] = system: HCC 2998
[14] = system: UACC-257
[15] = system: MCF7
[16] = system: HCT-15
[17] = system: SW-620
[18] = system: LOX IMVI
[19] = system: RPMI-8226

SMILES | GI50 [1] | GI50 [2] | GI50 [3] | GI50 [4] | GI50 [5] | GI50 [6] | GI50 [7] | GI50 [8] | GI50 [9] | GI50 [10] | GI50 [11] | GI50 [12] | GI50 [13] | GI50 [14] | GI50 [15] | GI50 [16] [µM] | GI50 [17] | GI50 [18] | GI50 [19]
Clc1ccc(CNc2nc(Cl)c3nc[nH]c3n2)cc1Cl | > 100 µM (inactive) | 15.9 µM (inactive) | 27.7 µM (inactive) | 20.8 µM (inactive) | 12.2 µM (inactive) | 16.7 µM (inactive) | 13.5 µM (inactive) | 18.9 µM (inactive) | 36.2 µM (inactive) | 26.4 µM (inactive) | 21.6 µM (inactive) | 29.2 µM (inactive) | 19.8 µM (inactive) | 13.5 µM (inactive) | 18 µM (inactive) | 27 |  |  | 
CN(C)CCCNC(CC#N)CCC#N (stereo not drawn) | > 10 µM (inactive) | > 10 µM (inactive) | > 10 µM (inactive) | > 10 µM (inactive) | > 10 µM (inactive) | > 10 µM (inactive) | > 10 µM (inactive) | > 10 µM (inactive) | > 10 µM (inactive) | > 10 µM (inactive) | > 10 µM (inactive) | > 10 µM (inactive) | > 10 µM (inactive) | > 10 µM (inactive) | > 10 µM (inactive) | > 10 | > 10 µM (inactive) | > 10 µM (inactive) | 
COc1ccc(/C=C2\CN(C)CC3C2=NN(c2ccccc2)C3c2ccc(OC)cc2)cc1 (stereo not drawn) | > 100 µM (inactive) | > 100 µM (inactive) | 27.7 µM (inactive) | 27.2 µM (inactive) | 26.1 µM (inactive) | > 100 µM (inactive) |  | > 100 µM (inactive) |  | > 100 µM (inactive) | > 100 µM (inactive) | > 100 µM (inactive) | > 100 µM (inactive) | > 100 µM (inactive) | > 100 µM (inactive) | > 100 | > 100 µM (inactive) | > 100 µM (inactive) | > 100 µM (inactive)
C/C(=C\Cc1cc(O)ccc1O)CCc1c(C)cc(O)c(C=O)c1C [PANICEIN B3] |  | 19.3 µM (inactive) | 25.5 µM (inactive) | 23.5 µM (inactive) | 34.8 µM (inactive) | 17.4 µM (inactive) | 18.5 µM (inactive) | 24.9 µM (inactive) | 19.5 µM (inactive) | 20.4 µM (inactive) | 28.2 µM (inactive) | 32.3 µM (inactive) | 43.2 µM (inactive) |  |  | 27.4 | 45.9 µM (inactive) |  | > 100 µM (inactive)
CC1(C)CC(O)C(C)(C)[C@@H](O)C1 (stereo partly drawn) | > 100 µM (inactive) | > 100 µM (inactive) | > 100 µM (inactive) | > 100 µM (inactive) | > 100 µM (inactive) | > 100 µM (inactive) | > 100 µM (inactive) |  | > 100 µM (inactive) | > 100 µM (inactive) | > 100 µM (inactive) | > 100 µM (inactive) | > 100 µM (inactive) | > 100 µM (inactive) | > 100 µM (inactive) | > 100 | > 100 µM (inactive) | > 100 µM (inactive) | 
O=C(O)Cc1cc(O)c(CC(=O)O)cc1O | > 100 µM (inactive) | > 100 µM (inactive) | > 100 µM (inactive) | > 100 µM (inactive) | > 100 µM (inactive) | > 100 µM (inactive) |  | > 100 µM (inactive) | > 100 µM (inactive) | > 100 µM (inactive) | > 100 µM (inactive) | > 100 µM (inactive) | > 100 µM (inactive) | > 100 µM (inactive) |  | > 100 | > 100 µM (inactive) | > 100 µM (inactive) | 
CC1(C)CC(N2CCN(C3CC(C)(C)NC(C)(C)C3)CC2)CC(C)(C)N1 | > 100 µM (inactive) | > 100 µM (inactive) | > 100 µM (inactive) | > 100 µM (inactive) | > 100 µM (inactive) | > 100 µM (inactive) | > 100 µM (inactive) | > 100 µM (inactive) | > 100 µM (inactive) | > 100 µM (inactive) | > 100 µM (inactive) | > 100 µM (inactive) | > 100 µM (inactive) | > 100 µM (inactive) |  | > 100 | > 100 µM (inactive) | > 100 µM (inactive) | > 100 µM (inactive)
CC1CCC(C(C)C2C(O)CC3C4CC=C5CC(O)CCC5(C)C4CCC32C)NC1 (stereo not drawn) | 89.7 µM (inactive) | 45.3 µM (inactive) | 32.2 µM (inactive) | > 100 µM (inactive) | 14.5 µM (inactive) | 44.2 µM (inactive) | 34.2 µM (inactive) |  | 24.4 µM (inactive) | 43.1 µM (inactive) | 20.3 µM (inactive) |  | 11.9 µM (inactive) | 34.5 µM (inactive) | 39.4 µM (inactive) | 44 | 31.7 µM (inactive) | 21.3 µM (inactive) | 
